In ChEMBL document CHEMBL1649245:
Activity calls are given as the source filed them.

Columns and labels:
[1] = system: Mycoplasma capricolum; test: Antimicrobial activity against wild-type Mycoplasma capricolum at 3.7 ug/ml; assay type: functional
[2] = system: Mycoplasma genitalium; test: Antimicrobial activity against wild-type Mycoplasma genitalium at 1 to 3 ug/ml; assay type: functional; conditions: Mycoplasmoides genitalium
[3] = system: Mycoplasma capricolum; test: Antimicrobial activity against wild-type Mycoplasma capricolum at 1 to 3 ug/ml; assay type: functional
[4] = system: Mycoplasma mycoides; test: Antimicrobial activity against wild-type Mycoplasma mycoides at 1 to 3 ug/ml; assay type: functional
[5] = system: Mycoplasmoides pneumoniae; test: Antimicrobial activity against wild-type Mycoplasma pneumoniae at 1 to 3 ug/ml; assay type: functional, organism-based
[6] = system: Mycoplasmoides gallisepticum; test: Antimicrobial activity against wild-type Mycoplasma gallisepticum at 1 to 3 ug/ml; assay type: functional, organism-based
[7] = system: Escherichia coli; test: Antimicrobial activity against Escherichia coli at 10 to 50 ug/ml; assay type: functional, organism-based

Measured: Activity

COc1ccc(C[C@H](N)C(=O)N[C@H]2[C@@H](O)[C@H](n3cnc4c(N(C)C)ncnc43)O[C@@H]2CO)cc1
active: [1] | [2] | [3] | [4] | [5] | [6] | [7]
